Data as given in patent US8685392B2 (priority 2009, dated 2014).

Experiments:
[1] = system: gliadin-degrading enzymes of strain WSA-8
Experimental: (§1) Saliva ion buffer contains 50 mM KCl, 1 mM K2HPO4, 1 mM CaCl2 and 0.1 mM MgCl2 (pH 6.5). Cells were preincubated with the inhibitors for 15 min at room temperature prior to the addition of substrate. Z-YPQ-pNA hydrolysis was followed at 405 nm. Initial velocities of the enzymatic reaction are plotted.
(§2) Inhibitory effects were monitored toward the capacity to hydrolyze Z-YPQ-pNA. The initial rate of substrate proteolysis (Vi) was determined during the first 30 minute incubation time interval.

[2] = system: gliadin-degrading enzymes of strain WSA-2B
Experimental: as §1, §2

Cl.NCCc1ccc(S(=O)(=O)F)cc1 [AEBSF, 4-(2-Aminoethyl) benzenesulfonyl fluoride hydrochloride]
inhibition of Z-YPQ-pNA hydrolysis (initial rate Vi) in WSA-8 [1]: 78% | inhibition of Z-YPQ-pNA hydrolysis (initial rate Vi) in WSA-2B [2]: 97%
